Data from publication PMC1413570, “Testing Electrostatic Complementarity in Enzyme Catalysis: Hydrogen Bonding in the Ketosteroid Isomerase Oxyanion Hole” (PLoS Biology, 2006).
Read-outs that look alike come from different tables or passages of the source. Marks after values point to notes of the source that are not given here.

Key:
[1] = Determination of phenol pKa values (literature or spectral titration)
tKSI^D40N [2] = molecular target: T1, tKSI^D40N (Comamonas testosteroni, UniProt P00947, D38N); set-up: species or system Commamonas testosteroni; settings: for δ1, chemical shift of most downfield peak in complex / δ2, chemical shift of second downfield peak in complex: pH 7.2, −3 °C
T1 sequence (P00947 whole entry D38N, looked up): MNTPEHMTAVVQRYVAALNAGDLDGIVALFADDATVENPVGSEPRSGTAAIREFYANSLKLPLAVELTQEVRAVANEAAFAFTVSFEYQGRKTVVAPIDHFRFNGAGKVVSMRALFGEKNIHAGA

[3] = Enthalpies of ionization of phenols by titration with NaOH; type: physicochemical
From the text: The enthalpy of ionization of HEPES, used to correct for proton transfer to buffer, is 5.02 kcal/mol [ [149]].

[4] = molecular target: pKSI^D40N (ketosteroid isomerase) (Pseudomonas putida, UniProt P07445, D34C/D40N); experiment: biochemical; type: binding
Sequence of pKSI^D40N (ketosteroid isomerase) (P07445 whole entry D34C/D40N): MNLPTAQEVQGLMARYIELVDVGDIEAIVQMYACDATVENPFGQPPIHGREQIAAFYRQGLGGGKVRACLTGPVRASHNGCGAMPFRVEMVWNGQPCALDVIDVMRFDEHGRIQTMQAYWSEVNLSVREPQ

pKSI^D40N = pKSI^D40N (Pseudomonas putida, UniProt P07445, D34C/D40N); type: binding; settings: pH 7.2, 25 °C
Sequence of pKSI^D40N (P07445 whole entry D34C/D40N): as above
Method: Briefly, the affinity and enthalpy of binding of a high-affinity reference ligand (L ref) were first determined by direct titration of KSI ( Figure 14A) [ [147]]. […] Prior to ITC experiments, enzyme was dialyzed into buffer containing 10 mM HEPES (pH 7.2), 100 mM NaCl, 0.1 mM EDTA, 0.1 mM Tri(2-carboxyethyl)phosphine hydrochloride. All ligands were dissolved in the final dialysis buffer, and all samples were degassed under vacuum. ITC experiments were performed using a VP-ITC (MicroCal, Northampton, Massachusetts, United States) at 25 °C.
After background subtraction, the data were fit by nonlinear least squares regression using a displacement model, with the stoichiometry, association constant, and change of enthalpy of interaction of the weak ligand as the free variables, and the association constant and change of enthalpy of the tight ligand fixed based on the values obtained from direct titration [ [146]].

[5] = molecular target: tKSI^D40N (ketosteroid isomerase) (Comamonas testosteroni, UniProt P00947, D38N); experiment: biochemical; type: binding, Commamonas testosteroni
Sequence of tKSI^D40N (ketosteroid isomerase) (P00947 whole entry D38N): as the sequence (P00947 whole entry D38N, looked up) above

[6] = from literature; cited from earlier work
tKSI^D40N [7] = molecular target: T1, tKSI^D40N; settings: read-out: apparent affinity, previous assay; pH 7; cited from earlier work
[8] = set-up: method as in earlier work; settings: cited from earlier work
KSI = molecular target: KSI; set-up: method as in PMID 7918439; settings: less precise estimate; read-out: affinity of equilenin estimated by previous assays; cited from earlier work
[9] = spectral titration, 25 °C, ionic strength 100 mM
[10] = solution with ionic strength 100 mM maintained with NaCl
[11] = apparent affinity at pH 8 ([picture]), pH 8, errors in parenthesis are average deviations
[12] = Displacement assay, phenolate form
[13] = Displacement assay, uncorrected for enzyme ionization enthalpy
[14] = pH 8, errors in parenthesis are average deviations, read-out: apparent affinity at pH 8 ([picture])

For `Oc1ccc(F)c(F)c1F` [2,3,4-F3], the pKa [1, 9] was 7.7^b.

Work on `Oc1cc(F)cc(F)c1F` [2,3,5-F3, 2,3,5-trifluorophenol] yielded a pKa [1, 10] of 7.1.

In the case of `Oc1cccc(F)c1F` [2,3-F2], the pKa [1, 9] is reported as 7.7^b.

`Oc1cc(F)c(F)cc1F` [2,4,5-F3, 2,4,5-trifluorophenol] showed a pKa [1, 10] of 7.7.

In the case of `Oc1ccc(F)cc1F` [2,4-F2], the pKa [1, 9] is reported as 8.6^b.

For `Oc1cc(F)ccc1F` [2,5-F2], the pKa [1, 9] was 7.7^b.

In the case of `Oc1cc(F)c(F)c(F)c1` [3,4,5-F3, 3,4,5-trifluorophenol], the “δ1, chemical shift of most downfield peak in complex” value (shortened to “δ1, chemical shift”) (tKSI^D40N [2]) is reported as 16.3 ppm, the “δ2, chemical shift of second downfield peak in complex” value (shortened to “δ2, chemical shift”) (tKSI^D40N [2]) is reported as 14.9 ppm and the pKa [1] is reported as 8.2. The pKa [1, 10] was 8.2, the “∆Hion (heat of ionization)” value ([3]; Ionic strength 0.1) was 5.62 (0.06) and the Kd [4, 11] was 6.1 µM. For the same compound, the “∆G of binding” value (pKSI^D40N; Direct Titration) was -11.51 (0.04) kcal/mol, the “∆Hrel (relative enthalpy of binding)” value (pKSI^D40N; Direct Titration) was -6.0 (0.1) kcal/mol and the “∆G of binding” value (pKSI^D40N; [12]) was -11.1 (0.1) kcal/mol. The “∆Hrel (relative enthalpy of binding)” value (pKSI^D40N; [13]) was -5.8 (0.3) kcal/mol and the Kd [5] was 17 µM.

For `Oc1ccc(Cl)c(Cl)c1` [3,4-Cl2, 3,4-dichlorophenol], the “δ1, chemical shift” value (tKSI^D40N [2]) was 16.4 ppm, the “δ2, chemical shift” value (tKSI^D40N [2]) was 15.6 ppm and the pKa (physchem) was 8.5.

With `Oc1ccc(F)c(F)c1` [3,4-F2] the “∆Hion (heat of ionization)” value ([3]; Ionic strength 0.1) was 7.04 (0.06), the Kd [4, 14] was 31 µM and the “∆G of binding” value (pKSI^D40N; [12]) was -11.14 (0.01) kcal/mol. The “∆Hrel (relative enthalpy of binding)” value (pKSI^D40N; [13]) was -8.53 (0.05) kcal/mol and the Kd [5, 14] was 69 µM.

In the case of `Oc1cc(Cl)cc(Cl)c1` [3,5-Cl2], the “δ1, chemical shift” value (tKSI^D40N [2]) is reported as 16.6 ppm, the “δ2, chemical shift” value (tKSI^D40N [2]) is reported as 14.8 ppm and the pKa [1, 9] is reported as 8.1.

For `Oc1cc(F)cc(F)c1` [3,5-F2], the “∆Hion (heat of ionization)” value ([3]; Ionic strength 0.1) was 5.73 (0.07), the Kd [4, 14] was 8.4 µM and the “∆G of binding” value (pKSI^D40N; Direct Titration) was -11.23 (0.03) kcal/mol. The “∆Hrel (relative enthalpy of binding)” value (pKSI^D40N; Direct Titration) was -6.9 (0.1) kcal/mol, the “∆G of binding” value (pKSI^D40N; [12]) was -11.1 (0.2) kcal/mol and the “∆Hrel (relative enthalpy of binding)” value (pKSI^D40N; [13]) was -6.7 (0.8) kcal/mol. It also gave a Kd [5, 14] of 20 µM.

For `Oc1ccccc1F` [Phenol 2-F, 2-fluorophenol], the pKa [6] is given as 8.8.

In the case of `Oc1cccc(Br)c1` [Phenol 3-Br], the “δ1, chemical shift” value (tKSI^D40N [2]) is reported as 17.0 ppm and the “δ2, chemical shift” value (tKSI^D40N [2]) is reported as 15.6 ppm.

With `O=[N+]([O-])c1ccc(O)cc1C(F)(F)F` [Phenol 3-CF3-4-NO2] the “δ1, chemical shift” value (tKSI^D40N [2]) was 14.9 ppm, the “δ2, chemical shift” value (tKSI^D40N [2]) was 14.5 ppm and the pKa [1, 9] was 6.3.

In the case of `Oc1cccc(C(F)(F)F)c1` [Phenol 3-CF3], the “δ1, chemical shift” value (tKSI^D40N [2]) is reported as 17.0 ppm, the “δ2, chemical shift” value (tKSI^D40N [2]) is reported as 16.1 ppm and the pKa [1, 9] is reported as 8.7.

In the case of `N#Cc1cccc(O)c1` [Phenol 3-CN], the “δ1, chemical shift” value (tKSI^D40N [2]) is reported as 16.4 ppm and the “δ2, chemical shift” value (tKSI^D40N [2]) is reported as 15.6 ppm.

With `Oc1cccc(Cl)c1` [Phenol 3-Cl] the “δ1, chemical shift” value (tKSI^D40N [2]) was 17.1 ppm and the “δ2, chemical shift” value (tKSI^D40N [2]) was 15.6 ppm.

For `Oc1cccc(F)c1` [Phenol 3-F, 3-fluorophenol], the “∆Hion (heat of ionization)” value ([3]; Ionic strength 0.1) was 6.29 (0.05), the Kd [4, 11] was 41 µM and the “∆G of binding” value (pKSI^D40N; [12]) was -11.10 (0.05) kcal/mol. For the same compound, the Kd [5] was 110 µM.

In the case of `O=[N+]([O-])c1ccc(O)cc1F` [Phenol 3-F-4-NO2, 3-fluoro-4-nitrophenol], the “δ1, chemical shift” value (tKSI^D40N [2]) is reported as 14.4 ppm, the “δ2, chemical shift” value (tKSI^D40N [2]) is reported as 14.3 ppm and the pKa (physchem) is reported as 6.1.

In the case of `Oc1cc(F)cc(C(F)(F)F)c1` [Phenol 3-F-5-CF3, 3-fluoro-5-(trifluoromethyl)phenol], the “δ1, chemical shift” value (tKSI^D40N [2]) is reported as 16.4 ppm, the “δ2, chemical shift” value (tKSI^D40N [2]) is reported as 15.6 ppm and the pKa ([1]; solution of ionic strength 100 mM maintained with NaCl) is reported as 8.2.

In the case of `Oc1cccc(I)c1` [Phenol 3-I, 3-iodophenol], the pKa [6] is given as 9.2, the “δ1, chemical shift” value (tKSI^D40N [2]) is given as 16.8 ppm and the “δ2, chemical shift” value (tKSI^D40N [2]) is given as 15.9 ppm.

With `O=[N+]([O-])c1cc(O)ccc1Cl` [Phenol 3-NO2-4-Cl] the “δ1, chemical shift” value (tKSI^D40N [2]) was 15.8 ppm, the “δ2, chemical shift” value (tKSI^D40N [2]) was 15.4 ppm and the pKa [1, 9] was 7.8.

With `O=[N+]([O-])c1cccc(O)c1` [Phenol 3-NO2] the “δ1, chemical shift” value (tKSI^D40N [2]) was 16.4 ppm and the “δ2, chemical shift” value (tKSI^D40N [2]) was 15.5 ppm.

In the case of `CCc1cccc(O)c1` [Phenol 3-ethyl, 3-ethylphenol], the pKa [6] is listed as 9.9.

With `CC(C)c1cccc(O)c1` [Phenol 3-isopropyl, 3-isopropylphenol] the pKa [1, 10] was 9.9.

In the case of `Oc1ccc(C(F)(F)F)cc1` [Phenol 4-CF3], the “δ1, chemical shift” value (tKSI^D40N [2]) is reported as 16.4 ppm, the “δ2, chemical shift” value (tKSI^D40N [2]) is reported as 15.9 ppm and the pKa [1, 9] is reported as 8.9.

For `N#Cc1ccc(O)cc1` [Phenol 4-CN, 4-cyanophenol], the “δ1, chemical shift” value (tKSI^D40N [2]) was 15.6 ppm and the Kd ([4]; Kd from fit of pH dependence of binding to Equation 4, phenol pKa fixed at 8.0, enzyme pKa 5.5) was 0.016 ± 0.002 µM.

In the case of `Oc1ccc(Cl)cc1` [Phenol 4-Cl, 4-chlorophenol], the Kd (tKSI^D40N [7]) is listed as 7.9 ± 1.3 µM and the Kd [5] is listed as 40 ± 7 µM.

In the case of `Cc1cc(O)ccc1F` [Phenol 4-F-3-CH3, 4-Fluoro-3-methylphenol], the pKa [1, 10] is reported as 9.8.

For `Oc1ccc(F)cc1` [Phenol 4-F], the “∆Hion (heat of ionization)” value ([3]; Ionic strength 0.0) was 5.97 (0.03), the “∆Hion (heat of ionization)” value ([3]; Ionic strength 0.1) was 6.21 (0.06) and the Kd [4, 14] was 133 µM. The “∆Hion Lit value” [8] was 5.93 (0.05), the “∆G of binding” value (pKSI^D40N; [12]) was -11.34 (0.02) kcal/mol and the “∆Hrel (relative enthalpy of binding)” value (pKSI^D40N; [13]) was -9.8 (0.1) kcal/mol. It also gave a Kd [5, 14] of 320 µM.

For `Oc1ccc(I)cc1` [Phenol 4-I], the “δ1, chemical shift” value (tKSI^D40N [2]) was 16.7 ppm.

In the case of `O=[N+]([O-])c1ccc(O)cc1` [Phenol 4-NO2, 4-nitrophenol], the “δ1, chemical shift” value (tKSI^D40N [2]) is reported as 15.0 ppm, the “δ2, chemical shift” value (tKSI^D40N [2]) is reported as 14.8 ppm and the Kd ([4]; apparent affinity of the phenol for the enzyme (Equation 3), pH 6.9) is reported as 1.8 ± 0.2 µM. It also gave a Kd ([4]; pH-independent affinity of the phenolate form for the protonated enzyme (Equation 4), converted from apparent affinity at pH 6.9) of 0.026 ± 0.002 µM.

For `CC(=O)c1ccc(O)cc1` [Phenol 4-acetyl, 4-Acetylphenol], the pKa [6] is given as 8.1, the “δ1, chemical shift” value (tKSI^D40N [2]) is given as 16.0 ppm and the “δ2, chemical shift” value (tKSI^D40N [2]) is given as 15.4 ppm.

In the case of `CC(C)c1ccc(O)cc1` [Phenol 4-isoproyl, 4-isopropylphenol], the pKa (physchem) is reported as 10.

In the case of `Cc1ccc(O)cc1` [Phenol 4-methyl, 4-methylphenol], the pKa [6] is given as 10.2.

In the case of `Oc1ccccc1` [Phenol, phenol], the Kd (tKSI^D40N [7]) is given as 61 ± 10 µM, the Kd [4, 11] is given as 135 µM and the “∆Hion Lit value” [8] is given as 6.1 (0.2). For the same compound, the “∆G of binding” value (pKSI^D40N; [12]) was -11.3 (0.1) kcal/mol, the Kd [5, 11] was 410 µM and the Kd ([5]; apparent affinity, new assay, pH 7) was 430 ± 80 µM.

In the case of `C[C@]12CCc3c(ccc4cc(O)ccc34)[C@@H]1CCC2=O` [equilenin], the Kd (KSI) is listed as 0.1 to 1 nM, the “chemical shift of the principal downfield peak upon binding” value (tKSI^D40N [2]; spectrum not shown) is listed as 17.6 ppm and the pKa ([1]; solution of 100 mM ionic strength maintained with NaCl) is listed as 9.7.

For `Oc1c(F)c(F)c(F)c(F)c1F` [pentafluorophenol], the pKa (physchem) was 5.7.
